pIC50: −log10 of the molar value.
Columns and labels:
[1] = system: OCI-Ly3 (ABC-DLBCL, MALT1 dependent); assay: Cell death assay (CellTiter-Blue resazurin); type: cell-based, human; details: OCI-Ly3, 7 h
Procedure: The CellTiter-Blue® Cell Viability kit assay purchased from Promega was used to assess the cell death induced by NEMO stapled peptides in ABC- and GCB-DLBCL cell lines. […] Cells were considered 100% death when the fluorescence intensity value was the same as the one with the medium alone or with the cells treated with the cycloheximide protein synthesis inhibitor at 25 μM (Sigma Aldrich).
For each time point measurement 100 μl of cell samples were withdrawn at different incubation times (7 h, 24 h and 48 h) and subjected to resazurin assay for one hour at 37° C. in the CO2 incubator by adding and mixing for 10 sec 20 μl of resazurin. Fluorescence measurements were performed with a TECAN infinite F500 instrument at 560 nm excitation wavelength and 590 nm emission wavelength. Viability of cells at time 0 was determined just before adding compound and all experiments were performed in duplicate.
The percentage of cell death was calculated according to the following formula: (1−((RFUobs−blank)/(RFU100% viability−blank))*100), where RFUobs corresponds to the cells viability observed in the presence of compound, RFU100% viability, the initial cells viability and blank the background fluorescence measured using the medium alone.
The EC50 value was calculated by plotting the percentage of cell death as function of the compound concentration and fitting the experimental curve with the following formula: (A*P0)/(EC50+P0), where A is the amplitude of fluorescence, P0 is the peptide concentration.
To compare the inhibition efficiency of BA-UBI-SAHND306-Q313 with IKK inhibitors (MLN120B, MedChem Express) or IKKα/β inhibitor (TPCA1, R&D systems), 25,000 DLBCL cells (OCI-Ly3) were incubated for 7 h with an increasing concentration of IKK inhibitors ranging from 0 to 50 μM, and the amount of cell death was then determined using CellTiter-Blue® Cell Viability kit assay. For the MI-2 MALT1 inhibitor (Fontan et al., 2012, Cancer cell 22, 812-824), similar experiments were carried out in MALT dependent (OCI-Ly3) and independent (HLY1) DLBCL cells using a 0-25 μM range.

IKKα = biological target: T1, IKKα (Homo sapiens, UniProt O15111); details: reported; cited from earlier work
T1 sequence (O15111 1-745): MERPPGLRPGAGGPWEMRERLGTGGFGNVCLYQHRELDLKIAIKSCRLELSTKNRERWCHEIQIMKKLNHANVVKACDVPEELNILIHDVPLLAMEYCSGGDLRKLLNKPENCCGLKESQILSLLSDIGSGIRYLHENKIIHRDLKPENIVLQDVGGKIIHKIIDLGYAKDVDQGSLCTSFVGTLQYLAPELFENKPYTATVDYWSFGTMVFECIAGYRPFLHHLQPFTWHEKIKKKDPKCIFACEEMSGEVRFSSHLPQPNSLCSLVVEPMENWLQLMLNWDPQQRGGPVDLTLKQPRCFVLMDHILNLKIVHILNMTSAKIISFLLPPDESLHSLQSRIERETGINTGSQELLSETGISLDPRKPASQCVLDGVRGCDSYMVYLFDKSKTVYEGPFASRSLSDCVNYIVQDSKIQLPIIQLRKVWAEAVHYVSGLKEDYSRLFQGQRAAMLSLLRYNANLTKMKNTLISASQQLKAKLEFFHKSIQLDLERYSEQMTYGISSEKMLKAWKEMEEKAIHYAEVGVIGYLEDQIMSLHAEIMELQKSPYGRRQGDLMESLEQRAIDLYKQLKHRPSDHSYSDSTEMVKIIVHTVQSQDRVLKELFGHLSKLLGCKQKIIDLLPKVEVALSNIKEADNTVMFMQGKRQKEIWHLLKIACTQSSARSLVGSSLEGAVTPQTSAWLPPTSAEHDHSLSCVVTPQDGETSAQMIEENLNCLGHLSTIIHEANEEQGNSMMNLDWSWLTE

In the case of `NC(=O)Nc1sc(-c2ccc(F)cc2)cc1C(N)=O` [TPCA-1], the cell death [1] is listed as “no significant additional effect” and the pIC50 (IKKα) is listed as 6.40.

— patent US11884708B2, “Stapled peptide inhibitors of nemo as potential anti-inflammatory and anti-cancer drugs” (INSTITUT PASTEUR, priority 2015, dated 2024)
